Reference: US12331040B2 (Karyopharm Therapeutics Inc., priority 2013, dated 2025)

Tests used:
[1] = tested on: A549 cells; assay: MTT cell proliferation assay; type: cell-based; conditions: Homo sapiens, 72-hour MTT
How it was run: (§1)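 After overnight attachment at 5,000-10,000 cells per well, cultures receive test compound at eight levels (1 nM to 30 μM) for 72 h, followed by roughly 4 h with MTT. Dissolved formazan is quantified at 490 nm, giving percent inhibition against untreated control.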

[2] = tested on: AU-565 cells; assay: MTT cell proliferation assay; type: cell-based; conditions: Homo sapiens, AU565, 72-hour MTT
How it was run: as §1

[3] = tested on: CaOV3 cells; assay: MTT cell proliferation assay; type: cell-based; conditions: Homo sapiens, Caov-3, 72-hour MTT
How it was run: as §1

[4] = tested on: HCT116 cells; assay: MTT cell proliferation assay; type: cell-based; conditions: Homo sapiens, HCT-116, 72-hour MTT
How it was run: as §1

[5] = tested on: HEL.92.1.7 cells; assay: MTT cell proliferation assay; type: cell-based; conditions: Homo sapiens, 72-hour MTT
How it was run: as §1

[6] = tested on: IMR-90 cells; assay: MTT cell proliferation assay; type: cell-based; conditions: Homo sapiens, 72-hour MTT
How it was run: as §1

[7] = tested on: Jurkat cells; assay: MTT cell proliferation assay; type: cell-based; conditions: Homo sapiens, 72-hour MTT
How it was run: as §1

[8] = tested on: LS-174T cells; assay: MTT cell proliferation assay; type: cell-based; conditions: Homo sapiens, LS174T, 72-hour MTT
How it was run: as §1

[9] = tested on: MINO cells; assay: MTT cell proliferation assay; type: cell-based; conditions: Homo sapiens, 72-hour MTT
How it was run: as §1

[10] = tested on: MM1R cells; assay: MTT cell proliferation assay; type: cell-based; conditions: MM.1R, 72-hour MTT
How it was run: as §1

[11] = tested on: MOLT4 cells; assay: MTT cell proliferation assay; type: cell-based; conditions: Homo sapiens, MOLT-4, 72-hour MTT
How it was run: as §1

[12] = tested on: MV-4-11 cells; assay: MTT cell proliferation assay; type: cell-based; conditions: Homo sapiens, MV4-11, 72-hour MTT
How it was run: as §1

[13] = tested on: NCI-H1650 cells; assay: MTT cell proliferation assay; type: cell-based; conditions: Homo sapiens, 72-hour MTT
How it was run: as §1

[14] = tested on: NCI-H226 cells; assay: MTT cell proliferation assay; type: cell-based; conditions: Homo sapiens, 72-hour MTT
How it was run: as §1

[15] = tested on: NCI-H28 cells; assay: MTT cell proliferation assay; type: cell-based; conditions: Homo sapiens, 72-hour MTT
How it was run: as §1

[16] = tested on: NCI-H69 cells; assay: MTT cell proliferation assay; type: cell-based; conditions: Homo sapiens, 72-hour MTT
How it was run: as §1

[17] = tested on: NCI-H747 cells; assay: MTT cell proliferation assay; type: cell-based; conditions: Homo sapiens, 72-hour MTT
How it was run: as §1

[18] = tested on: RWPE-1 cells; assay: MTT cell proliferation assay; type: cell-based; conditions: Homo sapiens, 72-hour MTT
How it was run: as §1

[19] = tested on: SW-48 cells; assay: MTT cell proliferation assay; type: cell-based; conditions: Homo sapiens, SW48, 72-hour MTT
How it was run: as §1

[20] = tested on: SW-480 cells; assay: MTT cell proliferation assay; type: cell-based; conditions: Homo sapiens, SW480, 72-hour MTT
How it was run: as §1

[21] = tested on: Tera-1 cells; assay: MTT cell proliferation assay; type: cell-based; conditions: 72-hour MTT
How it was run: as §1

[22] = tested on: Toledo cells; assay: MTT cell proliferation assay; type: cell-based; conditions: Homo sapiens, 72-hour MTT
How it was run: as §1

[23] = tested on: U118MG cells; assay: MTT cell proliferation assay; type: cell-based; conditions: Homo sapiens, U-118-MG, 72-hour MTT
How it was run: as §1

[24] = tested on: Hep 3B xenografts; assay: Hep3B hepatocellular carcinoma xenograft in SCID mice; type: in vivo
Method: The effects of Compound 585 were evaluated on tumor growth using a Hep3B hepatocellular carcinoma xenograft model in SCID mice. Hep 3B (ATCC […]) hepatocellular carcinoma cells were obtained from ATCC. These cells were grown in DMEM medium supplemented with 10% fetal bovine serum and 1% penicillin and streptomycin. Cells were sub-cultured by dilution at a ratio of 1:4. Hep3B cells were harvested by centrifugation and counted using a hemocytometer. Cells were resuspended in PBS at a 5×10^7 cells per mL. Cells were placed on ice, then mixed with an equal volume of Matrigel™ (BD Biosciences CB-40234). This mixture was kept on ice and injected into the left flank of mice in a volume of 0.2 mL, equivalent to 5×10^6 cells per mouse. Thirty-two (32) SCID mice were inoculated subcutaneously in the left flank with 5×10^6 Hep 3B cells. Treatment was initiated when the tumors reached a mean volume of 103.7 mm3 (standard deviation±30 mm^3, range 17-183 mm^3). Mice were allocated to four (4) groups of eight (8) mice such that mean tumor volume in each group was within the range of 95 to 104 mm^3. Mice were treated with vehicle, standard of care control (doxorubicin), or Compound 585. With the exception of doxorubicin (which was given IP), all compounds were given by oral gavage. […] Animal weights and conditions were recorded daily, and tumors were measured on Mondays, Wednesdays and Fridays.

[25] = tested on: normal cells; assay: 72-hour MTT cell proliferation assay, summary over the normal cell lines tested; type: cell-based; conditions: normal cells (n=10): NHDF, 3T3, NHEK, IMR-90, PBMC, ARPE-19, HS738.st, WI-38, MRC-5, RWPE-1
Method: The MTT cell proliferation assay was used to study the cytotoxic properties of the compounds. The assay was performed according to the method described by Roche Molecular Biochemicals, with minor modifications. The assay is based on the cleavage of the tetrazolium salt, MTT, in the presence of an electron-coupling reagent. The water-insoluble formazan salt produced must be solubilized in an additional step. Cells grown in a 96-well tissue culture plate were incubated with the MTT solution for approximately 4 hours. After this incubation period, a water-insoluble formazan dye formed. After solubilization, the formazan dye was quantitated using a scanning multi-well spectrophotometer (ELISA reader). […] The cells were seeded at 5,000-10,000 cells in each well of 96-well plate in 100 μL of fresh culture medium and were allowed to attach overnight. The stock solutions of the compounds were diluted in 100 μL cell culture medium to obtain eight concentrations of each test compound, ranging from 1 nM to 30 μM. […] All optical densities were measured at 490 nm using a Vmax Kinetic Microplate Reader (Molecular Devices). In most cases, the assay was performed in duplicate and the results were presented as a mean percent inhibition to the negative control±SE. The following formula was used to calculate the percent of inhibition: Inhibition (%)=(1−(ODo/OD))×100. […]

Nc1ccc(/C=C/C(=O)NCc2cc3cc(-c4ccc(C(=O)N5CCC(F)(F)CC5)cn4)cc(C(F)(F)F)c3o2)cn1 [Compound 585, (E)-3-(6-aminopyridin-3-yl)-N-((5-(5-(4,4-difluoropiperidine-1-carbonyl)pyridin-2-yl)-7-(trifluoromethyl)benzofuran-2-yl)methyl)acrylamide]
IC50 [1]: 570 nM | IC50 [2]: 140 nM | IC50 [3]: 2220 nM | IC50 [4]: 9.82 µM | IC50 [5]: 120 nM | IC50 [6]: 4 µM | IC50 [7]: 40 nM | IC50 [8]: 8.8 µM | IC50 [9]: 110 nM | IC50 [10]: 190 nM | IC50 [11]: 40 nM | IC50 [12]: 90 nM | IC50 [13]: 530 nM | IC50 [14]: 6.78 µM | IC50 [15]: 200 nM | IC50 [16]: 80 nM | IC50 [17]: 590 nM | IC50 [18]: 4 nM | IC50 [19]: 170 nM | IC50 [20]: 480 nM | IC50 [21]: 120 nM | IC50 [22]: 50 nM | IC50 [23]: 50 nM | toxicity (side effects, weight loss) ([24]; Hep 3B xenograft model, minimal or no side effects or weight loss up to 200 mg/kg daily dose): without major toxicity | mean tumor volume of Hep 3B xenografts ([24]; SCID mice, 20 or 60 mg/kg PO daily): tumor growth inhibition | inhibition of normal cells [25]: did not inhibit
